According to patent publication US5536719A, “Benzothiadiazine compound” (Adir et Compagnie, priority 1994, dated 1996):

How the values were obtained:
[1] = Il Farmaco, Ed. Sc., 1978, 33, 713-720; cited from earlier work
[2] = tested on: AMPA receptor (rat cortex mRNA expressed in Xenopus oocytes); test: excitatory currents induced by AMPA in Xenopus oocytes (voltage-clamp); type: cell-based, rat (male Wistar) receptors expressed in Xenopus oocytes; conditions: for EC2X (concentration which doubles the intensity of the current induced by AMPA alone) / EC5X (concentration which increases five-fold the intensity of the current induced by AMPA alone): Xenopus oocytes, rat cortex mRNA, agonist AMPA (30 mM [sic])
Method: Study of the excitatory currents induced by AMPA in Xenopus oocytes mRNAs are prepared from male Wistar rat cerebral cortex by the guanidium thiocyanate/phenol/chloroform method. The poly(A^+) mRNAs are isolated by chromatography on oligo-dT cellulose and injected at an amount of 50 ng per oocyte. The oocytes are left to incubate for 2 to 3 days at 18° C. in order to allow expression of the receptors, and are then stored at 8°-10° C. The electrophysiological recording is performed in a plexiglass® chamber at 20°-24° C. in OR2 medium (J. Exp. Zool., 1973, 184, 321-334) by the "voltage-clamp" method with 2 electrodes, a 3rd electrode placed in the bath serving as reference. All the compounds are applied via the incubation medium and the electric current is measured at the end of the period of application. The AMPA is used at a concentration of […]. The concentration which doubles (EC2X) or which increases five-fold (EC5X) the intensity of the current induced by AMPA alone (50 to 100 nA) is determined for each compound studied.

[3] = tested on: AMPA receptors of neuronal cells; conditions: Journal of Neurochemistry, 1992, 58, 1199-1204; cited from earlier work
NMDA = test: currents induced by NMDA in Xenopus oocytes (selectivity); type: cell-based, rat (male Wistar) receptors expressed in Xenopus oocytes
[4] = tested on: slice of hippocampus (dentate gyrus EPSP); test: excitatory postsynaptic potentials (EPSP) induced by electrical stimulation on a slice of hippocampus; type: cell-based, male Wistar rat; conditions: compared with reference compounds, racemic mixture and R isomer
Method: Study of the synaptic excitatory potentials induced by electrical stimulation on a slice of hippocampus
Transverse slices of hippocampus ([…]) from a male Wistar rat are prepared using a "tissue chopper" and then incubated for 45 minutes in calcium-free medium containing 10 mM Mg^++. They are then stabilized in Krebs adjusted to pH 7.35 and oxygenated with O2 /CO2 (95%/5%) at room temperature.
The slices are submerged at 35° C. and the excitatory postsynaptic potentials (EPSP) are recorded in the dendritic field of the […] of the dentate gyms during stimulation ([…]) every 30 seconds of the perforating route via a tungsten bipolar electrode.
The EPSPs are acquired and analyzed by means of an A-D converter, a TL-1 interface and "pCLAMP" software.
The amplitude and duration of the EPSPs are evaluated on the negative wave relative to the base current.
The compounds are applied for 10 to 20 minutes in the superfusion bath containing MgSO4 (1 mM) in order to block the activation of the NMDA receptors. The concentration increasing the amplitude of the EPSP by 50% (A50) is determined for each compound.

kainate (KA) = test: currents induced by kainate (KA) in Xenopus oocytes (selectivity); type: cell-based, rat (male Wistar) receptors expressed in Xenopus oocytes

Row | SMILES | EC2X (concentration which doubles the intensity of the current induced by AMPA alone) [2] | EC5X (concentration which increases five-fold the intensity of the current induced by AMPA alone) [2] | other results
1 | O=S1(=O)NC2CCCN2c2ccccc21 (racemic) [Racemic mixture, 5,5-Dioxo-2,3,3a,4-tetrahydro-1H-pyrrolo[2,1-c]-[1,2,4]benzothiadiazine, reference compound] | 60 µM | 160 µM | hypotensive and bradycardiac activities [1]: having hypotensive and bradycardiac activities
2 | COc1ccc(C(=O)N2CCCC2=O)cc1 [Aniracetam, reference compound] | 1300 µM | 5000 µM | modulation of AMPA receptors of neuronal cells [3]: positively modulating the AMPA receptors of neuronal cells
3 | CC1=NS(=O)(=O)c2cc(Cl)ccc2N1 [Diazoxide, reference compound] | 400 µM | 1000 µM | 
4 | O=S1(=O)N[C@H]2CCCN2c2ccccc21 [Example 1, (3aS)-5,5-Dioxo-2,3,3a,4-tetrahydro-1H-pyrrolo[2,1-c][1,2,4]benzothiadiazine] | 35 µM | 70 µM | potentiation of the current (NMDA agonist) (NMDA): no potentiation of the current is observed; EC2X, NMDA (NMDA; selectivity table, agonist NMDA): > 300 µM; potentiation of the excitatory effects of AMPA ([2]; compared with reference compounds, racemic mixture and R isomer): very strongly potentiates the excitatory effects of AMPA; EC2X, AMPA ([2]; selectivity table, agonist AMPA): 35 µM; increase of the amplitude of the EPSP [4]: increases the amplitude of the EPSP at lower doses than the reference compounds, the racemic mixture or the R isomer; potentiation of the current (KA agonist) (kainate (KA)): no potentiation of the current is observed; EC2X, KA (kainate (KA); selectivity table, agonist kainate (KA)): > 300 µM
5 | O=S1(=O)N[C@@H]2CCCN2c2ccccc21 [R isomer] | 300 µM | > 1000 µM | 
